Experiment [1] deals with Healthy primary human lung fibroblasts. The experiment in a line: Seahorse glycolytic stress test (ECAR). The experiment is classed as cell-based. The note with it: 0.1 mM, 1 mM and 10 mM for 1 hour, then with or without 2 ng/ml TGF-β1 24 hours; FIGS. 4 and 5. The method, then: Healthy primary human lung fibroblasts (10,000 per well) were seeded in a seahorse plate pre-coated with Cell Tak (BD Biosciences, Oxford, UK). After an overnight incubation, fibroblasts were treated with different itaconate analogues for 1 hour and they were subsequently incubated with or without 2 ng/ml TGF-β1 for 24 hours. XF medium (nonbuffered RPMI containing 2 mM glutamine, 1 mM pyruvate and 10 mM glucose, pH 7.4, Agilent, Santa Clara, USA) was used to measure Oxygen Consumption Rate (OCR) and Extracellular Acidification Rate (ECAR) with the XFp extracellular flux analyser. The Seahorse glycolytic Stress Test (Agilent, Santa Clara, USA) was utilized to measure OCR and ECAR at baseline. Healthy primary human lung fibroblasts (10,000 per well) were seeded in a seahorse plate pre-coated with Cell Tak (BD Biosciences, Oxford, UK). After an overnight incubation, fibroblasts were treated with different concentrations (0.1 mM, 1 mM and 10 mM) of the itaconate analogues, citraconate or mesaconate, for 1 hour and they were subsequently incubated with or without 2 ng/ml TGF-β1 for 24 hours. XF medium (nonbuffered RPMI containing 2 mM glutamine, 1 mM pyruvate and 10 mM glucose, pH 7.4, Agilent, Santa Clara, USA) was used to measure an Extracellular Acidification Rate (ECAR) with the XFp extracellular flux analyser for the citraconate assay (FIG. 4) or mesaconate assay (FIG. 5). […]

Experiment [2] relates to Human lung fibroblast cells. Description: RT-PCR gene expression in TGFβ fibrosis model of human lung fibroblast cells. The format is cell-based. The following applies: 10 mM for 1 hour, then 2 ng/mL TGFβ 24 hours, relative to untreated cells; for gene expression of Col1α1: FIG. 2A; for gene expression of FN1: FIG. 2B; for gene expression of CTGF: FIG. 2C. An excerpt: Primary human lung fibroblasts were isolated from lung resections of patients undergoing lung cancer surgery or lung transplantation performed after informed consent as approved by an external Research Ethics Committee (REC 15/SC0101) according to Royal Brompton Hospital protocol (Royal Brompton & Harefield NHS Foundation Trust, 2016). Fibroblasts from healthy individuals were also purchased from Lonza (Lonza, Basel, Switzerland).
Real Time PCR After treatment, the supernatant liquid was removed from cell cultures and RLT buffer containing 1% beta-mercaptoethanol was added to each well and then was frozen for later analysis. RNA extraction of cells was performed using the RNeasy Plus Mini Kit (QIAGEN), according to the manufacturer's protocol. Samples were defrosted at room temperature and centrifuged. The homogenate was transferred onto RNeasy MinElute spin columns and purified. RNA was reverse-transcribed into cDNA using the High-Capacity cDNA Reverse Transcription Kit (ThermoFisher) according to the manufacturer's instructions. Real-time PCR was performed using fast-qPCR mastermix (QIAGEN) on a Viia-7 instrument (Applied Biosciences) with Taqman primers for human genes, namely acod1, cd163, fn1, IL-1β, mmp1, mmp9 using actb (Life Technologies) as housekeeping gene.
Fibroblasts are the principal effector cell during lung fibrosis and the main source of the excessive extracellular matrix deposition seen during the disease. To explore the anti-fibrotic properties of itaconate analogues in human fibroblast cells, qPCR experiments were undertaken. Human lung fibroblast cells were seeded (10,000 cells/well) in a 48-well plate and were incubated with ICL-PO, ICL-2, ICL-3, ICL-4, ICL-6, itaconate, dimethyl itaconate, sodium itaconate and dimethyl malonate for 1 hour, after which the supernatant liquid was removed. The healthy fibroblasts were then incubated with 2 ng/mL transforming growth factor beta (TGFβ) for 24 hours in order to mimic pulmonary fibrosis. TGFβ is activated in fibrotic diseases and plays a key role in mediating fibrotic tissue. After treatment, RNA extraction of the cells was performed and 10 μg RNA per sample was reverse transcribed into cDNA. RT-PCR was performed with TaqMan primers for Col1α1, connective tissue growth factor (CTGF) and fibronectin (FN1) human genes. The results are shown in FIG. 2—(A) Gene expression of COL1A1 relative to two housekeeping genes (bactin and Beta-2-Microglobulin-averaged to make a ‘pooled’ control); (B) Gene expression of FN1 relative to housekeeping gene; and (C) Gene expression of CTGF relative to housekeeping gene.

Experiment [3] has as its system human lung fibroblasts. The note with it: exogenous itaconate added to cultures; cited from earlier work.
Experiment [4] concerns lung fibrosis in mice. The following applies: inhaled (particularly oropharyngeal inhalation); cited from earlier work.

We go through eleven compounds from patent US20250205188A1, “TREATMENT OR PREVENTION OF RESPIRATORY DISEASES CHARACTERISED BY, OR INVOLVING, LUNG FIBROSIS” (IMPERIAL COLLEGE INNOVATIONS LIMITED, priority 2022, published 2025).

Structures are written as SMILES.

As for `C/C(=C/C(=O)O)C(=O)O` [citraconate], the “Extracellular Acidification Rate (ECAR)” value in experiment [1] is “concentration dependent reduction in ECAR”.
The same measure, in the same setting: then `C/C(=C\C(=O)O)C(=O)O` [mesaconate], with “concentration dependent reduction in ECAR”.
For the compound `C=C(CC(=O)N(C)C)C(=O)O` [ICL-PO, 3-(dimethylcarbamoyl)-2-methvlidenepropanoic acid], in experiment [2], the “gene expression of Col1α1” value was “decreased gene expression”, the “gene expression of FN1” value is recorded as “decreased gene expression” and the “gene expression of CTGF” value is given as “decreased gene expression”.
For `C=C(CC(=O)O)C(=O)O` [itaconate, 2-methylidenebutanedioic acid, reference compound], in experiment [2], the “gene expression of Col1α1” value is recorded as “decreased gene expression”, the “gene expression of FN1” value is given as “decreased gene expression” and the “gene expression of CTGF” value is listed as “decreased gene expression”. In addition, in experiment [3], the “proliferation of human lung fibroblasts” value was “limits” and the “wound healing of human lung fibroblasts” value is “limits”. Also, the lung fibrosis entry in experiment [4] is “ameliorates lung fibrosis”.
On to `COC(=O)CC(=O)OC` [dimethyl malonate, reference compound], for which, in experiment [2], the “gene expression of Col1α1” value is “decreased gene expression”, the “gene expression of FN1” value is listed as “decreased gene expression” and the “gene expression of CTGF” value is recorded as “decreased gene expression”.
For the compound `C/C=C(\CC(=O)O)C(=O)O` [ICL-3, (2E)-2-ethylidenebutanedioic acid], in experiment [2], the “gene expression of Col1α1” value is given as “decreased gene expression”, the “gene expression of FN1” value is on record as “decreased gene expression” and the “gene expression of CTGF” value is listed as “decreased gene expression”.
Consider `C=C(CC(=O)OC(C)(C)C)C(=O)OC(C)(C)C` [ICL-4, Bis(2-methyl-2-propanyl)-2-methylenesuccinate], for which, in experiment [2], the “gene expression of Col1α1” value was “decreased gene expression”, the “gene expression of FN1” value is given as “decreased gene expression” and the “gene expression of CTGF” value is reported as “decreased gene expression”.
Take `C=C(CC(=O)OC)C(=O)OC` [dimethyl itaconate]: in experiment [2], the “gene expression of Col1α1” value is “decreased gene expression”, the “gene expression of FN1” value was “decreased gene expression” and the “gene expression of CTGF” value is reported as “decreased gene expression”.
Regarding `C=C(CC(=O)O)C(=O)N(C)C` [ICL-2, Sodium 3-(dimethylcarbamovl)-3-methvlidenepropanoate], in experiment [2], the “gene expression of Col1α1” value is listed as “decreased gene expression”, the “gene expression of FN1” value is on record as “decreased gene expression” and the “gene expression of CTGF” value is “decreased gene expression”.
On to `C=C(CC(=O)O)C(=O)OC` [ICL-6, 3-(methoxycarbonyl)but-3-enoic acid], for which, in experiment [2], the “gene expression of Col1α1” value is “decreased gene expression”, the “gene expression of FN1” value is reported as “decreased gene expression” and the “gene expression of CTGF” value is reported as “decreased gene expression”.
Consider `C=C(CC(=O)[O-])C(=O)[O-].[Na+].[Na+]` [sodium itaconate, reference compound], for which, in experiment [2], the “gene expression of Col1α1” value is listed as “decreased gene expression”, the “gene expression of FN1” value is given as “decreased gene expression” and the “gene expression of CTGF” value was “decreased gene expression”.
